Assay results from the NIST ThermoML archive (doi:10.1016/j.jct.2016.06.011).
Numbers after ± are expanded uncertainties.

Test: wn = mass fraction of the nth substance listed
Details: 101.3 kPa, Liquid, Pycnometric method

mass density (283.15 K, w1 = 0.08506) [kg/m3] | mass density (293.15 K, w1 = 0.1354) [kg/m3] | mass density (303.15 K, w1 = 0.21) [kg/m3] | mass density (283.15 K, w1 = 0.3211) [kg/m3] | mass density (293.15 K, w1 = 0.4232) [kg/m3] | mass density (303.15 K, w1 = 0.5289) [kg/m3] | SMILES
1034 ± 14 | 1051 ± 14 | 1061 ± 14 | – | – | – | O=C1OC(=O)c2ccccc21 [isobenzofuran-1,3-dione] + C1COCCO1
– | – | – | 1049 ± 14 | 1056 ± 14 | 1063 ± 14 | O=Cc1ccc2ccccc2c1 [β-naphthaldehyde] + C1COCCO1
